What all share (format): cell-based
The test system of test [1] is rat peritoneal mast cells. Briefly: Degranulation of rat peritoneal mast cells (β-hexosaminidase activity in supernatant). The settings on record: for degranulation: 20 minutes. The procedure:
The rat peritoneal mast cells (RPMC) obtained by the procedure described in EXAMPLE 1 were subjected to passive sensitization for 30 minutes on ice using DNP IgE (Yamasa, 10 μg/ml), washed and plated on a 96-well plate in a final cell concentration of 100,000 cells/well in the reaction solution. RPMC was stimulated by lysoPS and DNP-BSA (Carbiochem) and the plate was centrifuged 20 minutes after. The β-hexosaminidase activity in the supernatant of the reaction solution was assayed using the degradation activity of 4-methylumbeliferryl-2-acetamido-2-deoxy-β-D-glucopyranoside (Wako Pure Chemicals) as an indicator.

Test [2] deals with human mast cell line LAD2 cells. Briefly: Leukotriene production of human mast cell line LAD2 cells (Leukotriene EIA). The procedure: The human mast cell line LAD2 cells obtained from National Institute of Health in US were subjected to passive sensitization overnight using DNP IgE (Yamasa, 1 μg/ml), washed and plated on a 96-well plate in a final cell concentration of 100,000 cells/well in the reaction solution. LAD2 cells were stimulated by lysoPS and DNP-BSA and the plate was centrifuged 20 minutes after. The leukotriene in the supernatant of the reaction solution was assayed using Leukotriene EIA Kit (Amersham).

For test [3], the system named is mouse bone marrow-derived mast cells. Briefly: MAPK activation: phosphorylation of ERK1/2 in mouse bone marrow-derived mast cells (BMMC). To be noted: BMMC. On the procedure: BMMC was established by collecting bone marrow fluid from the femur of male BALB/c mouse (Japan SLC), rinsing in RPMI1640 (Nikken Bio Medical Laboratory) and then incubating in a medium (RPMI1640, 50% WEHI-3 culture supernatant, 10% FBS (GIBCO), penicillin/streptomycin (BIOWHITTAKER), Non-Essential amino acids (GIBCO)) for 4 weeks. The cells were incubated in a CO2 incubator immediately before assay. Pertussis toxin (hereinafter PTX) was added to the cells in a final concentration of 0.1 μg/mL 4 hours before assay. BMMC was washed in ice-chilled assay buffer (Tyrode Buffer, 0.01% fatty acid free-BSA (SIGMA), 1 mM CaCl2, 1 mM MgCl2), and suspended in 2×10^6 cells/ml. The suspension was dispensed in a 1.5 mL tube followed by preincubation for 15 minutes at 37° C. The lysoPS solution and A23187 solution (Wako Pure Chemicals) as a positive control were added in equimolar amounts. After incubation at 37° C., the reaction was terminated by quenching. The cells were precipitated by centrifugation and the assay buffer was aspirated. After washing in PBS, 1×SDS sample buffer/DTT was added to the cells to lyse the cells. After ultrasonication for 15 seconds, the sample was heated at 95° C. for 5 minutes followed by quenching.
Detection by SDS-PAGE and western blotting were performed as follows. After separation using 10% Bis-Tris gel (Invitrogen), the gel was transferred to Immuno-Blot PVDF Membrane (BIO-RAD). The membrane was blocked with Block Ace (Dai-Nippon Pharmaceutical) and incubated at 4° C. overnight with a primary antibody (Phospho-p42/p44 MAP Kinase (Thr202/Thr204) Antibody (CST) or p42/p44 MAP Kinase Antibody (CST)) and further incubated at room temperature for an hour using a secondary antibody (Anti-rabbit IgG (CST)). The membrane after the antibody reaction was visualized by chemiluminescence using ECL PLUS (Amersham Biosciences). Detection and image analysis were performed using LAS1000 (FUJI FILM).

The subject of test [4] is other receptor expression cells. Description: cAMP production inhibitory activity on other receptor expression cells.
For test [5], the system named is rat primary culture microglial cells (PMGC). Briefly: Changes of intracellular calcium levels in rat primary culture microglial cells (FLIPR). The settings on record: 0.2 to 10 μM lysoPS. The procedure:
The reactivity of rat primary culture microglial cells (PMGC) with lysoPS was examined using FLIPR. PMGC was incubated in DMEM (Invitrogen) supplemented with 10% calf fetal serum (Invitrogen), unless otherwise indicated. PMGC, which was prepared from the brain of rat of one day old one day before assay, was plated on a Black walled 96-well plate (Costar) at 5.0×10^4 cells/well, and incubated overnight at 37° C. in a CO2 incubator adjusted to 5% CO2. After lysoPS was added to the PMGC, changes of intracellular calcium levels in this case were assayed using FLIPR (Molecular Device). To assay the changes of intracellular calcium levels on FLIPR, the following pretreatment was performed. First, an assay buffer was prepared to incorporate fluorescent dye Fluo-3AM (DOJIN) in the cells or wash the cells immediately before the FLIPR assay. To a solution of 20 ml of 1M HEPES (pH 7.4) (DOJIN) to 1000 ml of HBSS (Invitrogen) (hereinafter, HBSS/HEPES solution), 10 ml of the solution mixture obtained by dissolving 710 mg of Probenecid (Sigma) in 5 ml of 1N NaOH and further adding 5 ml of the HBSS/HEPES solution thereto was added. The resulting solution was used as an assay buffer. Next, 50 μg of Fluo-3AM was dissolved in 21 μl of DMSO (DOJIN) and an equal volume of 20% Pluronic acid (Molecular Device) was further mixed therewith. […]

In the case of lysophosphatidylserine [lysoPS], the degranulation in test [1] (100 ng/ml DNP-BSA with 0.1 μM lysoPS added simultaneously) is given as 8.4%; in test [1] (100 ng/ml DNP-BSA with 0.3 μM lysoPS added simultaneously), 14.7%; in test [1] (100 ng/ml DNP-BSA with 1 μM lysoPS added simultaneously) it was 26.0%; in test [1] (100 ng/ml DNP-BSA with 3 μM lysoPS added simultaneously), 36.7%; in test [1] (100 ng/ml DNP-BSA with 10 μM lysoPS added simultaneously) it was 45.2%. Also, the “degranulation (in words)” value in test [1] (0.1 to 10 μM lysoPS with 100 ng/ml DNP-BSA) is reported as “increased concentration-dependently”. Further, the leukotriene production in test [2] (300 ng/ml DNP-BSA with 0.1 μM lysoPS added simultaneously) came out at 382 pg/mL; in test [2] (300 ng/ml DNP-BSA with 0.3 μM lysoPS added simultaneously) it was 529 pg/mL; in test [2] (300 ng/ml DNP-BSA with 1 μM lysoPS added simultaneously) it was 638 pg/mL; in test [2] (300 ng/ml DNP-BSA with 3 μM lysoPS added simultaneously), 750 pg/mL; in test [2] (300 ng/ml DNP-BSA with 10 μM lysoPS added simultaneously), 792 pg/mL. Further, the “phosphorylation of ERK1/2 30 minutes after the stimulation” value in test [3] is on record as “the phosphorylation was observed”. The “time of maximum response of ERK1/2 phosphorylation after the stimulation” value in test [3] is reported as “about 2 minutes”. Besides, the “cAMP production inhibitory action on other receptor expression cells” value in test [4] was “not noted”. Moreover, the “increase in intracellular calcium levels” value in test [5] is given as “responded concentration-dependently”.

These data come from US7951548B2, “IL-13 production inhibitor” (Takeda Pharmaceutical Company Limited, priority 2005, dated 2011).
